Measured values from patent publication US11976137B2, “Compounds for use as apelin receptor antagonists” (Cambridge Enterprise Limited, priority 2018, dated 2024).
Where “and” joins values, the source holds several entries; their conditions need not be identical. Equal values may be shown once. Read-outs that look alike come from different tables or passages of the source. Non-standard residues stand in square brackets, D forms with d. Residues, ends and D or L forms follow the SMILES beside them. *: point of attachment. Phe(3,4,5-F3) = N[C@@H](Cc1cc(F)c(F)c(F)c1)C(=O)O; Myristoyl = CCCCCCCCCCCCCC(=O)*; pGlu = O=C1CC[C@@H](C(=O)O)N1; Nle = CCCC[C@H](N)C(=O)O; Abu = CC[C@H](N)C(=O)O; Aib = CC(C)(N)C(=O)O

Columns and labels:
Parameters in all cases: host or cells: CHO-K1
human apelin receptor [1] = molecular target: T1, human apelin receptor (Homo sapiens, UniProt P35414); test: DRx cAMP assay (cAMP Hunter eXpress AGTRL1 CHO-K1), forskolin-induced cAMP accumulation; assay type: cell-based; details: DRx cAMP pA2, antagonism of [Pyr1]apelin-13 inhibition of forskolin-stimulated cAMP
T1 sequence (P35414 1-380): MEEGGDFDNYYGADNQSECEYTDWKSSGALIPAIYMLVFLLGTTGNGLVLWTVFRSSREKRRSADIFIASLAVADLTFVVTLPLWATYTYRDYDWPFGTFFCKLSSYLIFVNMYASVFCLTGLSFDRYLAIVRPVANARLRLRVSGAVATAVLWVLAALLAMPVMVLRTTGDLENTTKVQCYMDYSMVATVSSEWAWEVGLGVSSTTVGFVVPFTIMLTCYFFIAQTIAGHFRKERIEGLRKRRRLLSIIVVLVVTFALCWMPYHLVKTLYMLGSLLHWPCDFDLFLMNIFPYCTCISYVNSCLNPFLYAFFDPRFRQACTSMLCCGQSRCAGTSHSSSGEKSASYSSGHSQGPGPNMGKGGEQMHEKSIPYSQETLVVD
Protocol: Antagonist activity at the apelin receptor was measured in two assays.
(§1) cAMP (cAMP Hunter™ eXpress AGTRL1 CHO-K1 GPCR Assay, DiscoverX Corporation, Ltd. Birmingham, UK) and β-arrestin (PathHunter® eXpress AGTRL1 CHO-K1 β-Arrestin GPCR Assay, DiscoverX Corporation, Ltd. Birmingham, UK) assays were performed according to the manufacturer's instructions. The cAMP assay measures the canonical signalling pathway through the G-protein. The β-arrestin assay measures the alternative signalling pathway and receptor internalisation.
Cells were then incubated with a mixture of Lysis Buffer, cAMP Buffer D and Detection Reagents for 1 hour at room temperature, followed by a 3 hour incubation with cAMP Reagent A at room temperature. Chemiluminescence was read using the LumiLITE™ Microplate Reader (DiscoverX). Concentration-response data for agonists, measured in relative light units (RLU), were analysed using a 4 parameter logistic equation in GraphPad Prism 6 (La Jolla, CA, USA) to determine values of potency expressed as the pD2 value (negative logo of the EC50 (where EC50 is the concentration producing half maximal response)), and maximum response (EMAX). Mean data from replicate experiments were normalised as percentage inhibition of forskolin-stimulated cAMP production.

human apelin receptor [2] = molecular target: T1, human apelin receptor; test: DRx β-arrestin assay (PathHunter eXpress AGTRL1 CHO-K1); assay type: cell-based; details: for Kb: DRx β-Arrestin pA2; for DRx β-Arrestin pA2: cho-k1 cells, 90 min
Protocol: as §1
For recruitment of β-arrestin, CHO-K1 cells artificially expressing the human apelin receptor were seeded in Cell Plating medium into 96-well plates and incubated for 48 hours at 37° C. in 5% CO2. Concentration response curves were constructed to test peptides (1 pmol/L-30 μmol/L) which were diluted in Cell Plating medium and added to the cells for 90 minutes at 37° C. If no response was obtained then test peptides were investigated as antagonists. […] Detection reagents were then added for a 2-hour incubation at room temperature. […] If no agonist response was obtained, test compounds were investigated for antagonist activity by repeating [Pyr]apelin-13 concentration response curves in the absence and presence of a single concentration (1-30 μmol/L of test peptide). Data were analysed as described for the cAMP assay using the Gaddum/Schild EC50 function in GraphPad Prism 6 to determine values of pA2.

human apelin receptor [3] = molecular target: T1, human apelin receptor; test: Cerep radioligand binding assay on CHO-K1 cells expressing the human apelin receptor
Protocol: Binding assays were performed by Cerep (Celle L'Evescault, France) on Chinese Hamster Ovary (CHO-K1) cells expressing the human apelin receptor. […] The results were expressed as a percent of control specific binding ((measured specific binding/control specific binding)×100) and as a percent inhibition of control specific binding (100−((measured specific binding/control specific binding)×100)) obtained in the presence of the test compounds. […] The inhibition constants (Ki) were calculated using the Cheng Prusoff equation (Ki=IC50/(1+(L/KD)), where L=concentration of radioligand in the assay, and KD=equilibrium dissociation constant of the radioligand for the receptor).

[4] = [Glp65,Nle75,Tyr77][125I]apelin-13, read-out: Ki (binding affinity at the apelin receptor, Cerep)

Compound | Kb (human apelin receptor [1]) | Kb (human apelin receptor [2]) | DRx β-Arrestin pA2 (human apelin receptor [2]) | Ki (human apelin receptor [3]; [4]) | Ki (human apelin receptor [3]; Ki (binding affinity at the apelin receptor, Cerep), [Glp65,Nle75,Tyr77][125I]apelin-13) [µM]
CC(C)C[C@H](NC(=O)[C@H](CCCNC(=N)N)NC(=O)[C@@H]1CCCN1C(=O)[C@H](CCCNC(=N)N)NC(=O)[C@H](CS)NC(=O)[C@H](CCCCN)NC(=O)[C@H](Cc1c[nH]cn1)NC(=O)[C@H](CS)NC(=O)[C@H](CC(C)C)NC(=O)[C@H](CCCNC(=N)N)NC(=O)[C@@H]1CCCN1C(=O)[C@H](CCCNC(=N)N)NC(=O)[C@@H](N)CS)C(=O)N[C@@H](CS)C(=O)O [MM107] (H-CRPRLCHKCRPRLC-OH; N-terminus and C-terminus assumed) | 4.68 µM and 0.575 µM | 0.0575 µM | pA2 = 7.24 | – | –
CC(C)C[C@H](NC(=O)[C@H](CCCNC(=N)N)NC(=O)[C@@H]1CCCN1C(=O)[C@H](CCCNC(=N)N)NC(=O)[C@H](CS)NC(=O)[C@H](Cc1c[nH]cn1)NC(=O)[C@H](CCCCN)NC(=O)[C@H](CS)NC(=O)[C@H](CC(C)C)NC(=O)[C@H](CCCNC(=N)N)NC(=O)[C@@H]1CCCN1C(=O)[C@H](CCCNC(=N)N)NC(=O)[C@@H](N)CS)C(=O)N[C@@H](CS)C(=O)O [MM108] (H-CRPRLCKHCRPRLC-OH) | 0.107 µM and 0.191 µM | 0.0389 µM | pA2 = 7.41 | – | 0.14
CCCC[C@H](NC(=O)[C@H](CCCNC(=N)N)NC(=O)C(C)(C)NC(=O)[C@H](CCCNC(=N)N)NC(=O)[C@H](CS)NC(=O)[C@H](Cc1c[nH]cn1)NC(=O)[C@H](CCCCN)NC(=O)[C@H](CS)NC(=O)[C@H](CCCC)NC(=O)[C@H](CCCNC(=N)N)NC(=O)[C@@H]1CCCN1C(=O)[C@H](CCCNC(=N)N)NC(=O)[C@@H](N)CCC(N)=O)C(=O)N[C@@H](Cc1cc(F)c(F)c(F)c1)C(=O)O [MM262, QRPR-Nle-CKHCR-Aib-R-Nle-(3,4,5-trifluorophenylalanine)] (H-QRPR[Nle]CKHCR[Aib]R[Nle][Phe(3,4,5-F3)]-OH) | 0.447 µM and 0.135 µM | 0.0295 µM | pA2 = 7.53 | 0.034 µM | –
CCCC[C@H](NC(=O)[C@H](CCCNC(=N)N)NC(=O)C(C)(C)NC(=O)[C@H](CCCNC(=N)N)NC(=O)[C@H](CC)NC(=O)[C@H](Cc1c[nH]cn1)NC(=O)[C@H](CCCCN)NC(=O)[C@H](CS)NC(=O)[C@H](CCCC)NC(=O)[C@H](CCCNC(=N)N)NC(=O)[C@@H]1CCCN1C(=O)[C@H](CCCNC(=N)N)NC(=O)[C@H](C)NC(C)=O)C(=O)N[C@@H](Cc1cc(F)c(F)c(F)c1)C(=O)O [MM313, Ac-ARPR-Nle-CKH-Abu-R-Aib-R-Nle-(3,4,5-trifluorophenylalanine)] (Ac-ARPR[Nle]CKH[Abu]R[Aib]R[Nle][Phe(3,4,5-F3)]-OH) | 0.219 µM and 0.12 µM | – | – | 0.053 µM and 0.047 µM | –
CCCC[C@H](NC(=O)[C@H](CCCNC(=N)N)NC(=O)C(C)(C)NC(=O)[C@H](CCCNC(=N)N)NC(=O)[C@H](CC)NC(=O)[C@H](Cc1c[nH]cn1)NC(=O)[C@H](CCCCN)NC(=O)[C@H](CC)NC(=O)[C@H](CCCC)NC(=O)[C@H](CCCNC(=N)N)NC(=O)[C@@H]1CCCN1C(=O)[C@H](CCCNC(=N)N)NC(=O)[C@H](C)N)C(=O)N[C@@H](Cc1cc(F)c(F)c(F)c1)C(=O)O [MM314, ARPR-Nle-Abu-KH-Abu-R-Aib-R-Nle-(3,4,5-trifluorophenylalanine)] (H-ARPR[Nle][Abu]KH[Abu]R[Aib]R[Nle][Phe(3,4,5-F3)]-OH) | 0.372 µM and 0.195 µM | – | – | 0.01 µM and 0.0089 µM | –
CCCCCCCCCCCCCC(=O)N[C@@H](C)C(=O)N[C@@H](CCCNC(=N)N)C(=O)N1CCC[C@H]1C(=O)N[C@@H](CCCNC(=N)N)C(=O)N[C@@H](CCCC)C(=O)N[C@@H](CC)C(=O)N[C@@H](CCCCN)C(=O)N[C@@H](Cc1c[nH]cn1)C(=O)N[C@@H](CC)C(=O)N[C@@H](CCCNC(=N)N)C(=O)NC(C)(C)C(=O)N[C@@H](CCCNC(=N)N)C(=O)N[C@@H](CCCC)C(=O)N[C@@H](Cc1cc(F)c(F)c(F)c1)C(=O)O [MM315, Myristoyl-ARPR-Nle-Abu-KH-Abu-R-Aib-R-Nle-(3,4,5-trifluorophenylalanine)] (Myristoyl-ARPR[Nle][Abu]KH[Abu]R[Aib]R[Nle][Phe(3,4,5-F3)]-OH) | 0.00776 µM and 0.00302 µM | – | – | 0.0027 µM and 0.003 µM | –

Further lines, with some results ahead:

Kb (human apelin receptor [1]) | Kb (human apelin receptor [2]) | DRx β-Arrestin pA2 (human apelin receptor [2]) | Ki (human apelin receptor [3]; [4]) | Compound | Ki (human apelin receptor [3]; Ki (binding affinity at the apelin receptor, Cerep), [Glp65,Nle75,Tyr77][125I]apelin-13) [µM]
0.832 µM and 0.724 µM | 0.0417 µM | pA2 = 7.38 | 0.055 µM | CCCC[C@H](NC(=O)[C@H](CCCNC(=N)N)NC(=O)C(C)(C)NC(=O)[C@H](CCCNC(=N)N)NC(=O)[C@H](CS)NC(=O)[C@H](Cc1c[nH]cn1)NC(=O)[C@H](CCCCN)NC(=O)[C@H](CS)NC(=O)[C@H](CCCC)NC(=O)[C@H](CCCNC(=N)N)NC(=O)[C@@H]1CCCN1C(=O)[C@H](CCCNC(=N)N)NC(=O)[C@@H]1CCC(=O)N1)C(=O)N[C@@H](Cc1cc(F)c(F)c(F)c1)C(=O)O [MM297, pyr-RPR-Nle-CKHCR-Aib-R-Nle-(3,4,5-trifluorophenylalanine)] ([pGlu]RPR[Nle]CKHCR[Aib]R[Nle][Phe(3,4,5-F3)]-OH) | –
0.0257 µM and 0.0759 µM | 0.0174 µM | pA2 = 7.76 | 0.016 µM | CCCC[C@H](NC(=O)[C@H](CCCNC(=N)N)NC(=O)C(C)(C)NC(=O)[C@H](CCCNC(=N)N)NC(=O)[C@H](CS)NC(=O)[C@H](Cc1c[nH]cn1)NC(=O)[C@H](CCCCN)NC(=O)[C@H](CC)NC(=O)[C@H](CCCC)NC(=O)[C@H](CCCNC(=N)N)NC(=O)[C@@H]1CCCN1C(=O)[C@H](CCCNC(=N)N)NC(=O)[C@@H](N)CS)C(=O)N[C@@H](Cc1cc(F)c(F)c(F)c1)C(=O)O [MM298, CRPR-Nle-Abu-KHCR-Aib-R-Nle-(3,4,5-trifluorophenylalanine)] (H-CRPR[Nle][Abu]KHCR[Aib]R[Nle][Phe(3,4,5-F3)]-OH) | –
0.0479 µM and 0.112 µM | 0.00794 µM and 0.00295 µM | – | 0.0061 µM | CCCC[C@H](NC(=O)[C@H](CCCNC(=N)N)NC(=O)C(C)(C)NC(=O)[C@H](CCCNC(=N)N)NC(=O)[C@H](CC)NC(=O)[C@H](Cc1c[nH]cn1)NC(=O)[C@H](CCCCN)NC(=O)[C@H](CS)NC(=O)[C@H](CCCC)NC(=O)[C@H](CCCNC(=N)N)NC(=O)[C@@H]1CCCN1C(=O)[C@H](CCCNC(=N)N)NC(=O)[C@@H](N)CS)C(=O)N[C@@H](Cc1cc(F)c(F)c(F)c1)C(=O)O [MM299, CRPR-Nle-CKH-Abu-R-Aib-R-Nle-(3,4,5-trifluorophenylalanine)] (H-CRPR[Nle]CKH[Abu]R[Aib]R[Nle][Phe(3,4,5-F3)]-OH) | –
0.251 µM and 0.145 µM | – | – | 0.19 µM and 0.16 µM | CCCC[C@H](NC(=O)[C@H](CCCNC(=N)N)NC(=O)C(C)(C)NC(=O)[C@H](CCCNC(=N)N)NC(=O)[C@H](CC)NC(=O)[C@H](Cc1c[nH]cn1)NC(=O)[C@H](CCCCN)NC(=O)[C@H](CS)NC(=O)[C@H](CCCC)NC(=O)[C@H](CCCNC(=N)N)NC(=O)[C@@H]1CCCN1C(=O)[C@H](CCCNC(=N)N)NC(=O)[C@H](C)N)C(=O)N[C@@H](Cc1cc(F)c(F)c(F)c1)C(=O)O [MM312, ARPR-Nle-CKH-Abu-R-Aib-R-Nle-(3,4,5-trifluorophenylalanine)] (H-ARPR[Nle]CKH[Abu]R[Aib]R[Nle][Phe(3,4,5-F3)]-OH) | –
0.0132 µM and 0.0389 µM | – | – | 0.0028 µM and 0.003 µM | CCCCCCCCCCCCCC(=O)N[C@@H](C)C(=O)N[C@@H](CCCNC(=N)N)C(=O)N1CCC[C@H]1C(=O)N[C@@H](CCCNC(=N)N)C(=O)N[C@@H](CCCC)C(=O)N[C@@H](CC)C(=O)N[C@@H](Cc1c[nH]cn1)C(=O)N[C@@H](CCCCN)C(=O)N[C@@H](CC)C(=O)N[C@@H](CCCNC(=N)N)C(=O)NC(C)(C)C(=O)N[C@@H](CCCNC(=N)N)C(=O)N[C@@H](CCCC)C(=O)N[C@@H](Cc1cc(F)c(F)c(F)c1)C(=O)O [MM316, Myristoyl-ARPR-Nle-Abu-HK-Abu-R-Aib-R-Nle-(3,4,5-trifluorophenylalanine)] (Myristoyl-ARPR[Nle][Abu]HK[Abu]R[Aib]R[Nle][Phe(3,4,5-F3)]-OH) | –
